The record followed here is ChEMBL document CHEMBL5724914, “Linking interpersonal differences in gut microbiota composition and drug biotransformation activity” (2024).

The conditions of data set [1]: human gut metagenome, 24 h, 2 µM.
Data set [2] in a line: The drug is tested on Z-024 corresponding to pig gut metagenome with ENA study accession number: PRJEB37062 and ENA sample accession number: ERS12561823 for biotransformation under anaerobic condition. The drug concentrations were measured over 9 timepoints collected between 0 and 24 hours of incubation by liquid-chromatography-coupled mass spectrometry (LC–MS). The following applies: 2 µM.

The conditions of data set [3]: human gut metagenome, 24 h, 2 µM. The source holds these as a separate data set.
The conditions of data set [4]: human gut metagenome, 24 h, 2 µM. This is another data set of the same source.
For data set [5] the following is noted: human gut metagenome, 24 h, 2 µM. This is another data set of the same source.
The conditions of data set [6]: human gut metagenome, 24 h, 2 µM. The source holds these as a separate data set.
For data set [7] the following is noted: human gut metagenome, 24 h, 2 µM. The source holds these as a separate data set.
A short description of data set [8]: The drug is tested on WLS-086 corresponding to human gut metagenome with ENA study accession number: PRJEB37062 and ENA sample accession number: ERS12561752 for biotransformation under anaerobic condition. The drug concentrations were measured over 9 timepoints collected between 0 and 24 hours of incubation by liquid-chromatography-coupled mass spectrometry (LC–MS). The following applies: 2 µM.

For data set [9] the following is noted: human gut metagenome, 24 h, 2 µM. This is another data set of the same source.
For data set [10] the following is noted: human gut metagenome, 24 h, 2 µM. This is another data set of the same source.
A short description of data set [11]: The drug is tested on Z-003 corresponding to pig gut metagenome with ENA study accession number: PRJEB37062 and ENA sample accession number: ERS12561803 for biotransformation under anaerobic condition. The drug concentrations were measured over 9 timepoints collected between 0 and 24 hours of incubation by liquid-chromatography-coupled mass spectrometry (LC–MS). As to conditions: 2 µM.

The nature of data set [12]: The drug is tested on WLS-077 corresponding to human gut metagenome with ENA study accession number: PRJEB37062 and ENA sample accession number: ERS12561750 for biotransformation under anaerobic condition. The drug concentrations were measured over 9 timepoints collected between 0 and 24 hours of incubation by liquid-chromatography-coupled mass spectrometry (LC–MS). The following applies: 2 µM.

The nature of data set [13]: The drug is tested on Z-008 corresponding to metagenome with ENA study accession number: PRJEB37062 and ENA sample accession number: ERS12561808 for biotransformation under anaerobic condition. The drug concentrations were measured over 9 timepoints collected between 0 and 24 hours of incubation by liquid-chromatography-coupled mass spectrometry (LC–MS). The following applies: 2 µM.

A short description of data set [14]: The drug is tested on Z-006 corresponding to mouse gut metagenome with ENA study accession number: PRJEB37062 and ENA sample accession number: ERS12561806 for biotransformation under anaerobic condition. The drug concentrations were measured over 9 timepoints collected between 0 and 24 hours of incubation by liquid-chromatography-coupled mass spectrometry (LC–MS). The following applies: 2 µM.

Data set [15] can be described thus: The drug is tested on Z-011 corresponding to mouse gut metagenome with ENA study accession number: PRJEB37062 and ENA sample accession number: ERS12561811 for biotransformation under anaerobic condition. The drug concentrations were measured over 9 timepoints collected between 0 and 24 hours of incubation by liquid-chromatography-coupled mass spectrometry (LC–MS). As to conditions: 2 µM.

The nature of data set [16]: The drug is tested on Z-007 corresponding to rat gut metagenome with ENA study accession number: PRJEB37062 and ENA sample accession number: ERS12561807 for biotransformation under anaerobic condition. The drug concentrations were measured over 9 timepoints collected between 0 and 24 hours of incubation by liquid-chromatography-coupled mass spectrometry (LC–MS). The following applies: 2 µM.

A short description of data set [17]: The drug is tested on WLS-007 corresponding to human gut metagenome with ENA study accession number: PRJEB37062 and ENA sample accession number: ERS12561742 for biotransformation under anaerobic condition. The drug concentrations were measured over 9 timepoints collected between 0 and 24 hours of incubation by liquid-chromatography-coupled mass spectrometry (LC–MS). The following applies: 2 µM.

The nature of data set [18]: The drug is tested on WLS-052 corresponding to human gut metagenome with ENA study accession number: PRJEB37062 and ENA sample accession number: ERS12561747 for biotransformation under anaerobic condition. The drug concentrations were measured over 9 timepoints collected between 0 and 24 hours of incubation by liquid-chromatography-coupled mass spectrometry (LC–MS). The following applies: 2 µM.

A short description of data set [19]: The drug is tested on Z-010 corresponding to metagenome with ENA study accession number: PRJEB37062 and ENA sample accession number: ERS12561810 for biotransformation under anaerobic condition. The drug concentrations were measured over 9 timepoints collected between 0 and 24 hours of incubation by liquid-chromatography-coupled mass spectrometry (LC–MS). As to conditions: 2 µM.

Data set [20] is described as follows: The drug is tested on Z-009 corresponding to pig gut metagenome with ENA study accession number: PRJEB37062 and ENA sample accession number: ERS12561809 for biotransformation under anaerobic condition. The drug concentrations were measured over 9 timepoints collected between 0 and 24 hours of incubation by liquid-chromatography-coupled mass spectrometry (LC–MS). As to conditions: 2 µM.
Further: call rule not given here.

Regarding `CNNCc1ccc(C(=O)NC(C)C)cc1` [PROCARBAZINE], the “Bacterial Biotransformation” value in data set [1] is on record as “Compound NOT metabolized”; in data set [2] it was “Compound metabolized”; in [3], “Compound NOT metabolized”; in data set [4], “Compound NOT metabolized”; in data set [5], “Compound NOT metabolized”; in data set [6], “Compound metabolized”. For the same compound, the “Bacterial Biotransformation” value in [7] was “Compound metabolized”; in data set [8] it was “Compound metabolized”; in [9] it was “Compound NOT metabolized”; in data set [10], “Compound NOT metabolized”; in data set [11] it was “Compound NOT metabolized”; in [12], “Compound NOT metabolized”. Besides, the “Bacterial Biotransformation” value in data set [13] is “Compound NOT metabolized”.

As to `N#Cc1ccc2[nH]cc(CCCCN3CCN(c4ccc5oc(C(N)=O)cc5c4)CC3)c2c1` [VILAZODONE], the “Bacterial Biotransformation” value in data set [14] is on record as “Compound metabolized”; in data set [1] it was “Compound metabolized”; in [15], “Compound metabolized”; in data set [2], “Compound metabolized”; in [3], “Compound metabolized”; in [16], “Compound NOT metabolized”. The “Bacterial Biotransformation” value in data set [5], in data set [6], in [7], in [8], in data set [9] and in data set [11] was “Compound metabolized” throughout. Besides, the “Bacterial Biotransformation” value is reported as “Compound metabolized” in data set [12]; “Compound metabolized” in data set [17]; “Compound metabolized” in data set [18]; “Compound metabolized” in data set [13]; “Compound metabolized” in data set [19]; “Compound NOT metabolized” in data set [20].

With `C[C@]12C=CC(=O)C=C1CC[C@@H]1[C@@H]2C(=O)C[C@@]2(C)[C@H]1CC[C@]2(O)C(=O)CO` [PREDNISONE], the “Bacterial Biotransformation” value in [14] is “Compound metabolized”; in [1], “Compound metabolized”; in data set [15] it was “Compound NOT metabolized”; in data set [2], “Compound metabolized”; in [3], “Compound metabolized”; in [4] it was “Compound metabolized”. In addition, the “Bacterial Biotransformation” value in data set [16] is on record as “Compound NOT metabolized”; in data set [5], “Compound metabolized”; in data set [6], “Compound metabolized”; in [8], “Compound metabolized”; in [9] it was “Compound metabolized”; in [10], “Compound metabolized”. Also, the “Bacterial Biotransformation” value in [11] is reported as “Compound metabolized”; in data set [12] it was “Compound metabolized”; in [17], “Compound metabolized”; in data set [18] it was “Compound metabolized”; in data set [13], “Compound NOT metabolized”; in data set [19] it was “Compound metabolized”. Besides, in data set [20], the “Bacterial Biotransformation” value was “Compound metabolized”.

As to `O=C1CCc2ccc(OCCCCN3CCN(c4cccc(Cl)c4Cl)CC3)cc2N1` [ARIPIPRAZOLE], the “Bacterial Biotransformation” value in [14] is reported as “Compound metabolized”; in [15] it was “Compound NOT metabolized”; in data set [2] it was “Compound metabolized”; in data set [16] it was “Compound NOT metabolized”; in data set [11], “Compound metabolized”; in data set [13], “Compound metabolized”. Moreover, the “Bacterial Biotransformation” value in data set [19] and in [20] was “Compound metabolized” each time.

Take `CC(=O)SCC(Cc1ccccc1)C(=O)NCC(=O)OCc1ccccc1` (stereo not drawn) [RACECADOTRIL]: the “Bacterial Biotransformation” value in data set [14], in data set [15], in data set [2], in data set [16], in data set [11] and in data set [13] was “Compound metabolized” throughout. Moreover, the “Bacterial Biotransformation” value in [19] and in data set [20] was “Compound metabolized” in each case.

As for `CN(C/C=C/C#CC(C)(C)C)Cc1cccc2ccccc12` [TERBINAFINE], the “Bacterial Biotransformation” value was “Compound NOT metabolized” in [14]; “Compound NOT metabolized” in data set [1]; “Compound NOT metabolized” in data set [15]; “Compound NOT metabolized” in data set [2]; “Compound NOT metabolized” in data set [3]; “Compound metabolized” in data set [4]. Besides, the “Bacterial Biotransformation” value is listed as “Compound NOT metabolized” in [16]; “Compound NOT metabolized” in data set [5]; “Compound NOT metabolized” in [6]; “Compound NOT metabolized” in [7]; “Compound metabolized” in data set [8]; “Compound NOT metabolized” in data set [9]. For the same compound, the “Bacterial Biotransformation” value is “Compound NOT metabolized” in [10]; “Compound NOT metabolized” in data set [11]; “Compound NOT metabolized” in [13]; “Compound NOT metabolized” in data set [19]; “Compound metabolized” in data set [20].

Turning to `COc1ccc(/C=C/C(=O)Nc2ccccc2C(=O)O)cc1OC`, the “Bacterial Biotransformation” value in [14] is reported as “Compound NOT metabolized”; in [1] it was “Compound NOT metabolized”; in data set [15] it was “Compound NOT metabolized”; in data set [2], “Compound metabolized”; in data set [3] it was “Compound NOT metabolized”; in data set [4], “Compound metabolized”. In addition, the “Bacterial Biotransformation” value in data set [16] was “Compound NOT metabolized”; in data set [5], “Compound NOT metabolized”; in [6], “Compound NOT metabolized”; in [7] it was “Compound metabolized”; in data set [8], “Compound NOT metabolized”; in [9] it was “Compound NOT metabolized”. Further, the “Bacterial Biotransformation” value in data set [10] is on record as “Compound NOT metabolized”; in data set [11], “Compound metabolized”; in data set [12] it was “Compound metabolized”; in [18], “Compound metabolized”; in [13], “Compound NOT metabolized”; in data set [19], “Compound metabolized”. Also, the “Bacterial Biotransformation” value in data set [20] is listed as “Compound metabolized”.

Take `N[C@@H](Cc1ccc(N(CCCl)CCCl)cc1)C(=O)O`: the “Bacterial Biotransformation” value in data set [1] is recorded as “Compound metabolized”; in data set [15], “Compound metabolized”; in [2], “Compound metabolized”; in data set [5], “Compound NOT metabolized”; in data set [6] it was “Compound NOT metabolized”; in data set [8], “Compound metabolized”. Moreover, the “Bacterial Biotransformation” value in data set [9], in data set [11], in data set [12], in data set [17] and in data set [18] was “Compound metabolized” each time.
